According to EPA's ToxValDB 9.5:

Tests used:
Rattus norvegicus = conditions: subchronic; duration: 90 days; oral; diet; M; Crl:CD(SD) BR; Body Weight Changes: Weight gain decrease + Absolute Organ Weight: Liver increase + Relative Organ Weight: Liver increase + Histopathology: …
Monkey [1] = conditions: oral
Oryctolagus sp. = conditions: acute, dermal; for LOAEL: duration: 1 days
Bird = conditions: subchronic, duration: 8 week, oral, drinking water, M, Japanese quail
Monkey [2] = conditions: short-term; duration: 29 days; oral; capsule; M; Cynomolgus; blood: basophils + blood: eosinophils + blood: lymphocytes + blood: monocytes + blood: reticulocytes + blood: segmented neutrophils + blood…
Megascops sp. = conditions: oral
Neovison sp. = conditions: repeat dose other; oral; Mink
[3] = chronic, duration: 26 weeks, M, Cynomolgus, Body Weight: 12% decrease by week 10
[4] = chronic, duration: 26 weeks, M, Cynomolgus, Endocrine: Significant decrease in serum TT4 (27-35%) and FT4 (30-38%)

Question: Which results are given for `O=C([O-])C(F)(F)C(F)(F)C(F)(F)C(F)(F)C(F)(F)C(F)(F)C(F)(F)F.[NH4+]` [Ammonium perfluorooctanoate]?
Answer: NOAEL (Rattus norvegicus): 0.096 mg/kg-day; LOAEL (Monkey [1]; [3]): 20 mg/kg-day; NOAEL (Monkey [1]; [3]): 10 mg/kg-day; LOAEL (Monkey [1]; [4]): 10 mg/kg-day; NOAEL (Monkey [1]; [4]): 3 mg/kg-day; LOAEL (Monkey [1]; chronic, duration: 26 weeks, M, Cynomolgus, Hepatic: 36% increase in absolute liver weight at ?3 mg/kg/day / increased serum triglyceride levels at 30/20 mg/kg/day): 3 mg/kg-day; NOAEL (Monkey [1]; chronic, duration: 26 weeks, M, Cynomolgus, Immunotoxicological: No histological alterations + Neurological: No histological alterations + Reproductive: No histological alterations): 20 mg/kg-day; LOAEL (Monkey [1]; short-term, duration: 2 weeks, M/F, Rhesus, Death: Unspecified number out of four died on week 2): 100 mg/kg-day; NOAEL (Monkey [1]; subchronic, duration: 30 days, M, Cynomolgus, Endocrine: No alterations in serum levels of thyroid hormones and TSH and histopathology of adrenals + Reproductive: No alterations in serum…): 20 mg/kg-day; NOAEL (Monkey [1]; subchronic, duration: 90 days, M/F, Rhesus): 30 mg/kg-day; LOAEL (Monkey [1]; subchronic, duration: 90 days, M/F, Rhesus, Body Weight: 33% body weight loss by week 6 + Death: One male and two females died during weeks 7-12): 30 mg/kg-day; NOAEL (Monkey [1]; subchronic, duration: 90 days, M/F, Rhesus, Body Weight: 33% body weight loss by week 6 + Gastrointestinal: Emesis + Immunotoxicological: Atrophy of lymphoid follicles in spleen and …): 10 mg/kg-day; LOAEL (Monkey [1]; subchronic, duration: 90 days, M/F, Rhesus, Gastrointestinal: Emesis + Immunotoxicological: Atrophy of lymphoid follicles in spleen and lymph nodes + Neurological: Hypoactivity and …): 30 mg/kg-day; NOAEL (Monkey [1]; subchronic, duration: 90 days, M/F, Rhesus, Reproductive: No histological alterations in testes or ovaries): 100 mg/kg-day; LOAEL (Oryctolagus sp.; Albino, Ocular: Moderate eye irritation): 100 mg; LOAEL (Oryctolagus sp.; M, New Zealand, Death: 14-day LD50): 4300 mg/kg-day; NOAEL (Oryctolagus sp.; duration: 24 hours, Albino): 500 mg; LOEL (Bird; PHA skin test (DTH response)): 2.1 mg/kg-day; NOEL (Bird; PHA skin test (DTH response)): 0.2 mg/kg-day; NOEL (Bird; bacteremia (subsequent to E. coli challenge) + cellulitis (subsequent to E. coli challenge) + chemiluminescence of ROS produced by innate …): 2.1 mg/kg-day; NOEL (Monkey [2]): 20 mg/kg-day

Question: `[F-].[Na+]` [Sodium fluoride] was tested. Which LOAEL (Megascops sp.) did it give?
Answer: 32 mg/kg-day

Question: What about the NOAEL (Megascops sp.) of the same compound?
Answer: 7.8 mg/kg-day

Question: What about the LOAEL (Neovison sp.) of the same compound?
Answer: 52.8 mg/kg-day

Question: And the NOAEL (Neovison sp.)?
Answer: 31.4 mg/kg-day
